From patent US20200384072A1, “THERAPY OF IONIZING RADIATION-INDUCED DISORDERS” (SCK-CEN, priority 2019, published 2020)

What was measured:
[1] = test system: TIME cells; experiment: Cytokine detection (Magnetic Luminex) in supernatant after irradiation, TIME cells; assay type: cell-based, human
Experimental: TICAE and TIME cells were seeded in a 6-well plate at a density of 2.5×10^5 cells/well in 5 to 6 biological replicates. Two to three days later, cells reached 100% confluence. At 30 minutes before X-ray exposure, cells were refreshed with medium with or without 100 μM TAT-Gap19 (Genosphere Biotechnologies, Paris, France). At 24 h, 48 h, 72 h and 7 d after irradiation, the supernatant was collected. Medium was changed only for the 7 d time point experiment at the fourth day with fresh medium alone or with medium supplemented with 100 μM TAT-Gap19. For the simultaneous detection of multiple cytokines in the supernatants, the Magnetic Luminex® Assay (R&D systems, Minneapolis, […]) was used following manufacturer's instructions. Briefly, supernatants, standards and microparticles were incubated into a 96-well plate which was pre-coated with cytokine-specific antibodies. The immobilized antibodies were able to bind the cytokines of interest after 2 h incubation, then the plate was washed and incubation with a biotinylated antibody cocktail specific to the cytokines of interest was performed for 1 h. A second wash was performed to remove the unbound biotinylated antibodies. Further, a streptavidin-phycoerythrin conjugate was added to each well to bind to the biotinylated antibodies. After a final wash, the microparticles were resuspended in buffer and read using the Luminex® MAGPIX Analyzer (R&D systems, Minneapolis, […]).
In order to normalize to cell number, DAPI staining was performed for the 48 h after irradiation time point. Briefly, cells were washed with phosphate buffered saline (PBS) and fixed with 4% paraformaldehyde (PFA) for 15 minutes at room temperature. Afterwards, the cells were washed with PBS and stained with 1 μg/mL 4′,6-Diamidine-2′-phenylindole (DAPI) dissolved in 1×TBST, 0.005 g/v % TSA blocking powder (PerkinElmer, FP1012) (TNB). After one hour, cells were washed with PBS and DAPI signals were visualized with the Nikon Eclipse Ti automated inverted wide-field epifluorescence microscope equipped with a 5× magnification (Plan Fluor, numerical aperture 0.6) dry objective and a Nikon IE2000-E camera controlled by the MS Elements software. The intensity of the DAPI signals was determined with the FIJI software. Cell count for 24 h after irradiation experiment was performed by Moxi Z Mini Automated Cell Counter (ORFLO Technologies, Ketchum, Id., USA) after trypsinization. For the 72 h and 7 d post-irradiation cell counts, we used IncuCyte ZOOM™ phase contrast imaging based on 49 images taken per well with the 10× objective.

[2] = test system: TIME cells; experiment: Dextran fluorescein (10 kDa) dye uptake cell death assay, TIME cells; assay type: cell-based, human
Experimental: Dextran fluorescein, staining late apoptotic and necrotic cells, was used to validate apoptosis in TIME cells after irradiation. Cells were seeded in a 24-well plate at a density of 1.5×10^5 cells/well in 6 biological replicates. Three days later, cells reached 100% confluence. Before X-ray exposure with 30 minutes, cells were refreshed with medium with or without 100 μM TAT-Gap19 (Genosphere Biotechnologies, Paris, France). At 6 h and 72 h after irradiation, cells were washed twice with HMS supplemented with 25 mM HEPES (Sigma-Aldrich Co. LCC, Diegem, Belgium) (HBSS-HEPES). Afterwards, the cells were incubated with 200 μM dextran fluorescein (10 kDa) (Life Technologies, Merelbeke, Belgium), dissolved in HBSS-HEPES. After six minutes, the staining was removed by washing six times with HBSS-HEPES. Finally, the fluorescence was measured using the IncuCyte ZOOM® system (Essen BioScience, Ann Arbor, Mich., USA) by using FITC channel and phase contrast to count the cells using a ×10 objective. The fluorescence signal was normalized to cell count.

TAT-Gap19: connexin mimetic peptide, amino-acids 128-136 of the CL of Cx43 (SEQ ID NO: 2), Gap19 linked to TAT sequence; Cx43 hemichannel inhibitor (YGRKKRRQRRRKQIEIKKFK)
E-selectin readout ([1]; 100 μM TAT-Gap19, 0.1 Gy): decreased | IL-6 readout ([1]; 100 μM TAT-Gap19, 0.1 Gy): decreased | IL-8 readout ([1]; 100 μM TAT-Gap19, 0.1 Gy): decreased | PECAM-1 readout ([1]; 100 μM TAT-Gap19, 0.1 Gy): decreased | TNF-α readout ([1]; 100 μM TAT-Gap19, 0.1 Gy): decreased | VCAM-1 readout ([1]; 100 μM TAT-Gap19, 0.1 Gy): decreased | CRP (radiation-induced increase) ([1]; 100 μM TAT-Gap19, 5 Gy, 24 h): significantly reduced the increase | E-Selectin (radiation-induced increase) ([1]; 100 μM TAT-Gap19, 5 Gy, 24 h): significantly reduced the increase | ICAM-1 (radiation-induced increase) ([1]; 100 μM TAT-Gap19, 5 Gy, 24 h): significantly reduced the increase | IL-1B (radiation-induced increase) ([1]; 100 μM TAT-Gap19, 5 Gy, 24 h): significantly reduced the increase | MCP-1 (radiation-induced increase) ([1]; 100 μM TAT-Gap19, 5 Gy, 24 h): significantly reduced the increase | PECAM-1 (radiation-induced increase) ([1]; 100 μM TAT-Gap19, 5 Gy, 24 h): significantly reduced the increase | TNF-α (radiation-induced increase) ([1]; 100 μM TAT-Gap19, 5 Gy, 24 h): significantly reduced the increase | IL-6 (radiation-induced increase) ([1]; 100 μM TAT-Gap19, 5 Gy, 24 h, 48 h and 7 d p.i.): significantly reduced these responses | Endothelin-1 (radiation-induced increase) ([1]; 100 μM TAT-Gap19, 5 Gy, 24 h, 72 h and 7 d p.i.): significantly decreased these responses | VCAM-1 (radiation-induced increase) ([1]; 100 μM TAT-Gap19, 5 Gy, 24 h and 7 d p.i.): significantly reduced these responses | IL-8 levels ([1]; 100 μM TAT-Gap19, 5 Gy, 7 d p.i.): significantly decreased IL-8 levels | Endothelin-1 readout ([1]; 100 μM TAT-Gap19, control and 0.1 Gy): decreased | IL-6 readout ([1]; 100 μM TAT-Gap19, control and 0.1 Gy, 7 d p.i.): increased | dextran fluorescein staining (radiation-induced increase) ([2]; 100 μM TAT-Gap19, 5 Gy at 6 h p.i., 5 and 0.1 Gy at 72 h p.i., including control response): inhibited | dextran fluorescein staining ([2]; 100 μM TAT-Gap19, control and 0.1 Gy, 6 h p.i.): small increase
